Measurements taken from publication PMC6838683, “Discovery of Human Signaling Systems: Pairing Peptides to G Protein-Coupled Receptors” (Cell, 2019).
Read-outs that look alike come from different tables or passages of the source. No end group written: not given here.

What was measured:
[1] = target: T1, GPR15 (human) (UniProt P49685)
T1 sequence: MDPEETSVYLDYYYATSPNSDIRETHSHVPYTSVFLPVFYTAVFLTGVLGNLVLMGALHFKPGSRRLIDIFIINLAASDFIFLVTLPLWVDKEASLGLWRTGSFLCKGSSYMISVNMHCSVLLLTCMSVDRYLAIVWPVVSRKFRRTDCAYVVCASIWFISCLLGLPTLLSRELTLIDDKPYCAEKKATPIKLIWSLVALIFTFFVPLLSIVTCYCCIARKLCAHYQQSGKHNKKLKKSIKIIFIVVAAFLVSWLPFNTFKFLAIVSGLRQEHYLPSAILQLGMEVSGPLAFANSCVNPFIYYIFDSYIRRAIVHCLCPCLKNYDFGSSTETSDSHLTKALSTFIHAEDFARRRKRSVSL

[2] = system: GPR32; assay: Repeat of proposed literature pairing (mass redistribution and/or internalization); type: cell-based, human
Text: (§1) DMR assays provide a single integrated readout of ligand-dependent cellular response, utilizing an optical biosensor in specialized microplates to detect wavelength shifts of reflected light as it passes through the biosensor and the lower portion of the cell (∼150-200 nm). As a signal pathway agnostic approach, DMR assays are well-suited to the study of GPCRs ([Fang et al., 2008], [Schröder et al., 2011]). The mass redistribution response (Δ picometer (pm)) likely reflects a number of intracellular events, including cytoskeletal rearrangement, protein trafficking and receptor internalization. Orphan receptor-expressing cells were gently washed twice with assay buffer (HBSS with 1 mM CaCl2, 1 mM MgCl2, 20 mM HEPES, 0.01% pluronic F-68, pH 7.4) containing 0.1% DMSO and cells were equilibrated for 90 min at 22°C in the EPIC Benchtop (BT) System (Corning) to establish a stable DMR signal. After 3-5 min baseline recordings, peptides (10 μM) were added in duplicate wells using an electronic 384-channel Viaflo pipette (Integra Biosciences, Switzerland) and DMR responses were measured for 60 min at 22°C. 100 nM norepinephrine was included as an internal assay control to assess the cellular DMR response via endogenously-expressed adrenoceptors in the TREx 293 cells. Real-time data were processed using the BT to column converter MS-Excel macro (Corning) and analyzed in GraphPad Prism 7.0. DMR recordings in peptide screening experiments were buffer and solvent corrected and the area under the curve (AUC) was quantified. For subsequent validation experiments, peptides were diluted in assay buffer containing 0.1% DMSO and DMR assays were performed as above. […] Data represent mean ± standard error of the mean (SEM) from at least 3 biologically independent experiments.
(§2) A TR-FRET real-time internalization assay was used to examine peptide-dependent changes in orphan receptor localization as described previously ([Foster and Bräuner-Osborne, 2018]). Surface-expressed SNAP-tagged receptors were labeled with a cell-impermeable luminescent terbium cryptate (100 nM SNAP Lumi4-Tb; Cisbio, France) for 1 hr at 37°C. Cells were washed to remove excess terbium and incubated with fluorescein-O-acetic acid (100 μM; Sigma Aldrich) for 5 min at 37°C. Peptides were added as for DMR assays, and internalization responses were recorded for 60 min at 37°C using an EnVision 2104 Multimode plate reader (PerkinElmer). 100 nM GLP-1 was used as a positive control for SNAP-GLP1R internalization. Real-time internalization responses were calculated based on TR-FRET (excitation 340 nm; emission 520 nm and 615 nm), and were expressed as the ratio between donor (terbium) and acceptor (fluorescein) emission. For peptide screening analysis (both DMR and internalization assays), we calculated the area under the curve from the real-time traces. As the magnitude of the responses was variable between orphan receptor targets, particularly for the SNAP-tag based internalization assay where the signal is dependent on receptor surface expression, the AUC values were normalized to their respective plate averages and expressed as fold change. Validation experiments for receptor internalization were performed as above. Internalization data was processed in MS-Excel and area under the curve was used to generate concentration-response curves using GraphPad Prism 7.0. Data represent mean ± standard error of the mean (SEM) from at least 3 biologically independent experiments.

[3] = system: human GPCRs; design: method as in Guide to Pharmacology database; settings: max reported value, ref Guide to Pharmacology database, cited from earlier work
Text: Supplement mmc1.xlsx, sheet "HumanGPCRLigands" | column: pKi_value; pKd_value; pEC50_value; pIC50_value

[4] = target: T2, melanocortin MC4 receptor (Homo sapiens, UniProt P32245); assay: β-arrestin recruitment (Tango), known peptide receptors; type: cell-based; settings: MC4R; mean, n = 3
T2 construct: host or cells: HTLA cells (HEK293-derived)
T2 sequence (P32245 whole entry): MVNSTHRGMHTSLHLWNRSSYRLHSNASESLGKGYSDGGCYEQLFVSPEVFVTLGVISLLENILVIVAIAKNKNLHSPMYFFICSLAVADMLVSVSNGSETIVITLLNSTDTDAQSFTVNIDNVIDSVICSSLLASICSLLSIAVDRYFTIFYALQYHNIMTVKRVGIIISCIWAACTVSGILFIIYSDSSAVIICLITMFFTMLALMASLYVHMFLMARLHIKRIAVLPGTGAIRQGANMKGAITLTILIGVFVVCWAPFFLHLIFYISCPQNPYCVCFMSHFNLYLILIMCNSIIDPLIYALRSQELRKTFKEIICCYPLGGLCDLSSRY
Experimental: (§3) The peptide library was additionally screened against 120 GPCR targets in parallel, including all available orphan receptors and 27 known class A peptide receptors using the Tango assay platform ([Kroeze et al., 2015]). Briefly, HTLA cells (a HEK293 cell line stably expressing a tTA-dependent luciferase reporter and a β-arrestin2-TEV fusion gene) were plated 10,000 cells/well in poly-L-lysine–coated clear-bottom white 384-well plates in DMEM supplemented with 10% FBS, 100 U/ml penicillin and 100 μg/ml streptomycin, 2 μg/ml puromycin and 100 μg/ml hygromycin B. 24 hr later, cells were transfected with Tango GPCR constructs using the calcium phosphate method ([Jordan et al., 1996]). The next day, culture medium was changed to DMEM + 1% dFBS and 10 μM peptides were added for overnight stimulation. Bright-Glo solution (Promega) was incubated for 15–20 min at room temperature, and luminescence was counted using a Trilux luminescence counter (Wallac).
(§4) For subsequent peptide validation experiments using Tango assays, HTLA cells were transiently transfected in 10 cm dishes with the receptor of interest using polyethylenimine (PEI) ([Longo et al., 2013]). After 24 hr, 25,000 cells/well were plated in clear bottom, white-walled 384-well plates. Assays were performed as described above, with luminescence measured using an EnSpire 2300 Multimode plate reader (PerkinElmer). Luminescence counts were exported into Excel and were analyzed using GraphPad Prism 7.

[5] = system: NPFF2; assay: as above; type: cell-based, human; settings: endogenous ligand(s) included in peptide library
Text: Supplement mmc6.xlsx, sheet "Peptide GPCR controls" | column: Confirmed?

[6] = system: GPR83; assay: Repeat of proposed literature pairing (mass redistribution and/or internalization); type: cell-based, human
Text: as §1, §2

[7] = target: T3, GPR176 (Homo sapiens, UniProt Q14439); assay: β-arrestin recruitment (Tango), indicative pairing; type: cell-based; settings: mean, n = 3
T3 construct: host or cells: HTLA cells (HEK293-derived)
T3 sequence (Q14439 1-515): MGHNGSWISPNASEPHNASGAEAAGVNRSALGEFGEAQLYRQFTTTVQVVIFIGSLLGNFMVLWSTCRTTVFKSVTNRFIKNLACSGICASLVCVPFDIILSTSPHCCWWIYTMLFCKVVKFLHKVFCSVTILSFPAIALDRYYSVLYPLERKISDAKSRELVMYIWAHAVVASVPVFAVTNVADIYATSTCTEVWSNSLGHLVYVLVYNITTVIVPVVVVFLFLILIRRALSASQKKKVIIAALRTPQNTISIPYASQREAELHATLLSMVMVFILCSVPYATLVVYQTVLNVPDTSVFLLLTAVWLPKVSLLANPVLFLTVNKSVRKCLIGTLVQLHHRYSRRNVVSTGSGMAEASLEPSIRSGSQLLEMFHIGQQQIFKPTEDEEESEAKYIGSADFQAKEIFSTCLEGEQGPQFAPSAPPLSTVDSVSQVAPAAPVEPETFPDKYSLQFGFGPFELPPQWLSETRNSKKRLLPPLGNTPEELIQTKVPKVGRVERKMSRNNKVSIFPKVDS
Experimental: as §3, §4

[8] = system: GPR19; assay: Repeat of proposed literature pairing (mass redistribution and/or internalization); type: cell-based, human
[9] = system: GPR151; assay: as above; type: cell-based, human
Text: as §1, §2

[10] = system: P2RY10; assay: as above; type: cell-based, human; settings: for receptor-dependent activation by proposed ligand, P2RY10: repeat of literature pairing across multiple assays, Figure S7A, Tables S5 and S7
Text: as §1, §2

[11] = system: GPR37L1; assay: as above; type: cell-based, human
Text: as §1, §2

[12] = system: GPR37; assay: as above; type: cell-based, human
Text: as §1, §2

[13] = repeat of literature pairing, Figure S7A, Tables S5 and S7
[14] = receptor galr1_human (GALR1, P47211)
[15] = receptor galr2_human (GALR2, O43603)
[16] = receptor galr3_human (GALR3, O60755)

## 45-amino acid cleavage variant of GPR15L (peptide)
[1]
  fold improved potency at GPR15 against the 11-amino acid peptide 64 (assay not given): 10 fold

## CC/C=C\C[C@H](O)/C=C/C=C\C=C\C=C\[C@@H](O)[C@@H](O)C/C=C\CCC(=O)O [RvD1]
[2]; repeat of literature pairing
  Lipid pairing for orphan receptor GPR32 (confirmed/unconfirmed): Unconfirmed lipid pairings for orphans

## CC/C=C\C[C@H](O)/C=C/C=C\C=C\C=C\[C@@H](O)[C@@H](O)C/C=C\CCC(=O)O [resolvin D1]
[3]; receptor fpr2_human (FPR2, P25090)
  pEC50_value: 11.9
[3]; receptor gpr32_human (GPR32), Class A orphans
  pEC50_value: 11.1
[2]; [13]
  receptor-dependent activation by proposed ligand, GPR32: no activity
[2]; target GPR32
  Comment (response in DMR / internalization assays): No response in any assay
[2]; target GPR32, reported ligand tested on receptor-expressing cell line
  Active in DMR/internalization: No

## ELEGEQPDGLEHVLEPDTEKADGPYRVEHFRWGNPPKD [Peptide 205]
[4]
  Emax, Tango (fold over basal): 4.9 fold over basal
  pEC50, Tango (fold over basal): 6.21

## HSQGTFTSDYSKYLDS [Peptide 110]
[4]
  Emax, Tango (fold over basal): 4.2 fold over basal
  pEC50, Tango (fold over basal): 5.93

## Neuropeptide NPVF; RFRP-3
[5]
  Confirmed? (confirmation of b-arrestin recruitment): No

## PEN: neuroendocrine peptide PEN, proposed GPR83 ligand (AADHDVGSELPPEGVLGALLRV)
[6]; repeat of literature pairing
  Peptide pairing for orphan receptor GPR83 (confirmed/unconfirmed): Confirmed peptide pairings for orphans
[6]; repeat of literature pairing across multiple assays, Figure S7A, Tables S5 and S7
  receptor-dependent activation by proposed ligand, GPR83: selective receptor-dependent activation
[6]; target GPR83
  Comment (response in DMR / internalization / Tango assays): PEN is included in library (peptide 146) and was purchased separately. Active in DMR, inactive in internalization, but also active in Tango
[6]; target GPR83, reported ligand tested on receptor-expressing cell line
  Active in DMR/internalization: Yes (DMR)

## RSVNPYLQ [Peptide 32]
[7]
  Emax, Tango (fold over basal): 2.3 fold over basal
  pEC50, Tango (fold over basal): 5.82

## adropin (CHSRSADVDSLSESSPNSSPGPCPEKAPPPQKPSHEGSYLLQP; not fully specified; cysteine pairing not given here; UniProt Q6UWT2 34-76, looked up) [proposed GPR19 ligand]
[8]; repeat of literature pairing
  Peptide pairing for orphan receptor GPR19 (confirmed/unconfirmed): Unconfirmed peptide pairings for orphans
[8]; [13]
  receptor-dependent activation by proposed ligand, GPR19: no activity
[8]; target GPR19
  Comment (response in DMR / internalization assays): No response in any assay
[8]; target GPR19, reported ligand tested on receptor-expressing cell line
  Active in DMR/internalization: No

## galanin [reference compound]
[3]; [14]
  pIC50_value: 9.9
  pKi_value: 10.5
[3]; [15]
  pEC50_value: 9.1
  pIC50_value: 9.3
  pKi_value: 9.1
[3]; [16]
  pIC50_value: 7.1
  pKi_value: 7.2
[9]; repeat of literature pairing
  Peptide pairing for orphan receptor GPR151 (confirmed/unconfirmed): Unconfirmed peptide pairings for orphans
[9]; [13]
  receptor-dependent activation by proposed ligand, GPR151: no activity
[9]; target GPR151
  Comment (response in DMR / internalization assays): Galanin is included in library (peptide 177) and was purchased separately. No response in any assay.
[9]; target GPR151, reported ligand tested on receptor-expressing cell line
  Active in DMR/internalization: No

## lysophosphatidic acid
[10]
  receptor-dependent activation by proposed ligand, P2RY10: no activity

## lysophosphatidylserine [LPS]
[3]; receptor gp174_human (GPR174), Class A orphans
  pEC50_value: 7.1
[3]; receptor gpr34_human (GPR34), Class A orphans
  pEC50_value: 6.9
[10]; repeat of literature pairing
  Lipid pairing for orphan receptor P2RY10 (confirmed/unconfirmed): Confirmed lipid pairings for orphans
[10]
  receptor-dependent activation by proposed ligand, P2RY10: selective receptor-dependent activation
[10]; listed as lysophosphatidylserine
  receptor-dependent activation by proposed ligand, P2RY10: marginal

## peptide 64 (GPR15L_(47-57))
[1]
  pEC50 of reduced cyclic AMP (cAMP) production (Gi/o): 6.72 pEC50

## prosaptide
[11]; repeat of literature pairing
  Peptide pairing for orphan receptor GPR37L1 (confirmed/unconfirmed): Unconfirmed peptide pairings for orphans
[11]; [13]
  receptor-dependent activation by proposed ligand, GPR37L1: no activity
[11]; target GPR37L1
  Comment (response in DMR / internalization assays): No response in any assay
[11]; target GPR37L1, reported ligand tested on receptor-expressing cell line
  Active in DMR/internalization: No
[12]; repeat of literature pairing
  Peptide pairing for orphan receptor GPR37 (confirmed/unconfirmed): Unconfirmed peptide pairings for orphans
[12]; [13]
  receptor-dependent activation by proposed ligand, GPR37: no activity
[12]; target GPR37
  Comment (response in DMR / internalization assays): No response in any assay
[12]; target GPR37, reported ligand tested on receptor-expressing cell line
  Active in DMR/internalization: No

B1: GPR15L (ligand)
peptide: KRRPAKAWSGRRTRLCCHRVPSPNSTNLKGHHVRLCKPCKLEPEPRLWVVPGALPQV
modifications: disulfide (positions not given here)
[1]
  fold improved potency at GPR15 against the 11-amino acid peptide 64 (assay not given): 100 fold
